# Results as given in patent publication US20070087976A1, “Topiramate and pharmaceutical formulations thereof” (priority 2005, published 2007).
# What was measured:
# [1] = storage at 80° C. for one month, color changes; type: physicochemical
# [2] = water absorption (sorption isotherm) at 25° C. and 90% r.h.; type: physicochemical
# Protocol: Thus, the pure active substance absorbs less than 0.1% of water at 25° C. at 90% r.h., as indicated by the sorption isotherm shown in FIG. 1. […] The topiramate according to the invention is therefore particularly suitable for the preparation of pharmaceutical formulations. The tablet formulations according to the invention which are obtainable by direct compression absorb less moisture than commercially available tablets. […] In contrast, topiramate tablets according to the invention, as in example 1 below, absorb only 5.5% of water under the same conditions.
smiles,measurement,setting,value
"CC1(C)O[C@@H]2[C@@H](CO[C@@]3(COS(N)(=O)=O)OC(C)(C)O[C@@H]23)O1 [topiramate, 2,3:4,5-bis-O-(1-methylethylidene)-β-D-fructopyranose sulfamate]",color changes on storage,[1],no color changes
same,water absorbed,[2],less than 0.1%
